Experiment: Chemical stability of the active ingredients in the composition
Assay type: physicochemical
Settings: in Composition 1
Experimental: The stability of the active ingredients per se were also measured under a wide variation of temperature conditions.

Row | SMILES | active ingredient content (2 wks@ 54° C.) [% wt.] | active ingredient content (2 wks@ −18° C.) [% wt.] | active ingredient content (Initial) [% wt.]
1 | CCOc1nc(F)cc2nc(S(=O)(=O)Nc3c(Cl)cccc3C(=O)OC)nn12 [Cloransulam-methyl] | 0.70 | 0.76 | 0.77
2 | CSc1nnc(C(C)(C)C)c(=O)n1N [Metribuzin] | 7.1 | 7.1 | 7.2
3 | CCc1cccc(C)c1N(C(=O)CCl)C(C)COC (stereo not drawn) [S-metalachlor, S-metolachlor] | 38.4 | 38.2 | 38.5

From patent US20250049034A1, “Composition” (Syngenta Crop Protection AG, priority 2021, published 2025)
